In article PMC5986654, “Combined HAT/EZH2 modulation leads to cancer-selective cell death” (Oncotarget, 2018):

What was measured:
HCT116 colon carcinoma = assay: Immunohistochemistry and TUNEL of HCT116 xenograft tumors; format: in vivo, mice; conditions: end of treatment, 10 mg/Kg
Procedure: HCT116 cell line was grown in McCoy’s medium, supplemented with 10% inactivated FBS, 2 mM glutamine and standard concentration of antibiotics. 7- to 8-week-old male CD1 nude athymic mice were purchased from Charles River and under pathogen-free conditions in accordance with European Directives no. 2010/63 and with Italian D.L. 26/2014. Mice were injected subcutaneously into the right flank with 4 × 10^6 of HCT116 cells; tumor volume (mm^3) was evaluated three times a week by caliper using the formula Dmax x dmin^^2/2, where ‘d’ and ‘D’ are the shortest and the longest diameters, respectively. For all experiments, mice were randomly divided (n = 7) and intra-peritoneal injected by day five every day with: vehicle sesame oil/DMSO 6%; MC2884 10 mg/Kg in sesame oil/DMSO 6%. Mice were sacrificed after 20 days of drug treatment and tumors explanted for immunohistochemical analyses. For HCT116-DKO colon cancer, 6 × 10^6 cells were injected.
The biopsy specimens were fixed in 10% buffered-formalin and paraffin-embedded. Sections of […] were stained with haematoxylin-eosin, and haematoxylin-van Gieson. For immunohistochemistry, specimens were incubated in a microwave oven for 15 min in 10 mM buffered citrate pH 6.0 followed by the immunohistochemical procedure for Ki67 (Santa Cruz Biotechnology Inc., CA, USA), H3K27me3, H3K9/14ac (Diagenode). The conventional avidin-biotin complex procedure was applied according to manufacturer’s protocol (Dako Carpinteria, CA, USA) and incubated with secondary antibody. […] Slides were cover-slipped with a xylene-based mounting medium. Staining was scored as percentage of positive nuclei per high power field 10 × 40. Negative controls for each tissue section were performed omitting the primary antibody. Positive controls included in each experiment consisted of tissue previously shown to express the antigen of interest. TUNEL reaction was performed using the peroxidase-based Apoptag kit (Oncor, Gaithersburg, MD, US). TUNEL positive cells were detected with DAB and H2O2 according to the supplier’s instructions. The experiments were repeated on different sections for each specimen (two to four). For all immunohistochemical markers, 100 random fields (250×) per section were analysed (12.5 mm^2). Mann–Whitney and Wilcoxon tests were used to assess the relationship between ordinal data. Two-tailed P value was considered significant when ≤ 0.05. SPSS software (version 10.00, SPSS, Chicago, IL, USA) was used for statistical analysis.

CYP3A4 = biological target: T1, CYP3A4 (Homo sapiens, UniProt P08684); assay: Cytochrome P450 inhibition, CYP3A4; format: in vitro ADME; conditions: probe midazolam (2.5 µM), human liver microsomes, observed only at 25 μM
T1 construct: from tissue; host or cells: human liver microsomes
Procedure: This provided a dose of 2 mg free base material/kg when Cytochrome p450 inhibition (5 isoform iC50 administered iv in a 5 mL/kg dosing volume. determination) mouse terminal ip pK study ADME-Tox Cytochrome P450 inhibition of Compound MC2884 was given ip at a dose of 2 mg/kg MC2884 using human liver microsomes as an estimation to a group of 24 normally fed male CD1 mice in a 10 mL/ of in vitro metabolism. kg injection volume. Terminal blood samples (> 230 μL) MC2884 (0.1 μM–25 μM) was incubated with were taken under CO2 from groups of 3 mice at each of 8 human liver microsomes and NADPH in the presence time-points post dose (0.083, 0.25, 0.5, 1, 2, 4, 8 and 24 h) of a cytochrome P450 isoform-specific probe substrate. and placed into heparinized tubes. […]
All samples were stored at −20° C measuring the formation of a fluorescent metabolite. […]
Cyp2C19 inhibition (0.1 mg/mL) and NADPH (1 mM) in the presence of the probe substrate midazolam (2.5 μM) for 5 min at Six test compound samples at concentrations 37° C. […] For the CYP1A incubations, the reactions microsomes (0.5 mg/mL) and NADPH (1 mM) in the were terminated by methanol, and the formation of the presence of the probe substrate mephenytoin (25 μM) metabolite, resorufin, was monitored by fluorescence for 60 min at 37° C. […]

[1] = scored as percentage of positive nuclei

T1 sequence (P08684 whole entry): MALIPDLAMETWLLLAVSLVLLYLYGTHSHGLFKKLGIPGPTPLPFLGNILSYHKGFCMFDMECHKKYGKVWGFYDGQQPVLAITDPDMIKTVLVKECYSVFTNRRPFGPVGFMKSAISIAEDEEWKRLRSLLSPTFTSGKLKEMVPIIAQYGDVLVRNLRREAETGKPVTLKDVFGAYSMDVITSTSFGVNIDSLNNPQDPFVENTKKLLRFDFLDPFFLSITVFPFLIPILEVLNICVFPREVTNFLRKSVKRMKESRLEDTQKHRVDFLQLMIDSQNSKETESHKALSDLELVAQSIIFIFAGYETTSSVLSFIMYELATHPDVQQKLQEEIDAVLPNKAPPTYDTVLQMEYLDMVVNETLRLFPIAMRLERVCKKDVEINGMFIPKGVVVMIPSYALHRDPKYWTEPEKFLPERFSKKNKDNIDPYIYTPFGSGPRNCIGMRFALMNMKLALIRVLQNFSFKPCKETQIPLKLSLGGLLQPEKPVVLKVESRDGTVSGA

O=C1/C(=C/c2cccc(Br)c2)CN(Cc2ccccc2)C/C1=C\c1cccc(Br)c1 [MC2884]
apoptotic index (TUNEL) (HCT116 colon carcinoma): 35±4 | H3 K9/14ac (HCT116 colon carcinoma; [1]): 5±0.2 | H3 K27me3 (HCT116 colon carcinoma; [1]): 19±2 | proliferation index (Ki67) (HCT116 colon carcinoma; [1]): 6±0.5 | inhibition at 5 min, 25 µM (CYP3A4): 45%
